Test results reported in patent publication US9956181B2, “Composition of nanoformulated lycopene and method of using the composition” (priority 2015, dated 2018).

Key:
[1] = OVX rat study: serum and liver lycopene by HPLC; type: in vivo, Wistar rats
Protocol: A total of 264 Wistar female rats, ˜6 months old, were supplied by the Animal House at King Fahd Medical Research Center (KFMRC), KAU. Rats were housed in individual cages and maintained at 22° C. with a 12-h light/dark cycle. During the study period, rats were given standard rodent chow diet ad libitum (commercial rat cubes containing approximately 18% protein, 3% fat, 77% carbohydrate, and 2% of an inorganic-salt mixture with a vitamin supplement by weight, supplied by Grain Silos and Flour Mills Organization, Jeddah, Saudi Arabia) and water until the onset of intervention. Prior to surgery, rats were anesthetized with ketamine [(10% ketamine hydrochloride (80 mg/kg body weight), Cayman Chemical, Michigan, USA] and xylazine [(2% xylazine hydrochloride, 10 mg/kg body weight), Sigma-Aldrich Co., St. Louis, USA]. A single longitudinal skin incision was made on the dorsal midline at the level of the kidneys and both ovaries were ligated and removed to produce an ovariectomy in all OVX group animals. A SHAM-operated group, acting as a negative control for the effect of ovariectomy on bone parameters, underwent bilateral laparotomy, during which the ovaries were exposed but remained intact. […] The lycopene-supplemented groups were given lycopene (15, 30 and 45 mg/kg body weight per day) dissolved in corn oil by daily intra-gastric administration for the experimental period of 12 weeks. The SHAM, OVX and ALN control groups were given the same volume of corn oil without lycopene treatment. […] A 12-week randomized placebo-controlled study in order to examine the protective effects of lycopene supplementation on bone mass and fragility in OVX rats was concluded. Prior to surgery, body weight and bone mineral density (BMD) were obtained for all animals. […] Peripheral Quantitative CT (pQCT) scans were made of the proximal tibia metaphysis and the diaphysis. […]

[2] = system: ovariectomized (OVX) rats; experiment: OVX rat study: dynamic bone histomorphometry of tibial metaphysis and diaphysis; type: in vivo, Wistar rats
Protocol: A total of 264 Wistar female rats, ˜6 months old, were supplied by the Animal House at King Fahd Medical Research Center (KFMRC), KAU. Rats were housed in individual cages and maintained at 22° C. with a 12-h light/dark cycle. During the study period, rats were given standard rodent chow diet ad libitum (commercial rat cubes containing approximately 18% protein, 3% fat, 77% carbohydrate, and 2% of an inorganic-salt mixture with a vitamin supplement by weight, supplied by Grain Silos and Flour Mills Organization, Jeddah, Saudi Arabia) and water until the onset of intervention. Prior to surgery, rats were anesthetized with ketamine [(10% ketamine hydrochloride (80 mg/kg body weight), Cayman Chemical, Michigan, USA] and xylazine [(2% xylazine hydrochloride, 10 mg/kg body weight), Sigma-Aldrich Co., St. Louis, USA]. A single longitudinal skin incision was made on the dorsal midline at the level of the kidneys and both ovaries were ligated and removed to produce an ovariectomy in all OVX group animals. A SHAM-operated group, acting as a negative control for the effect of ovariectomy on bone parameters, underwent bilateral laparotomy, during which the ovaries were exposed but remained intact. […] The lycopene-supplemented groups were given lycopene (15, 30 and 45 mg/kg body weight per day) dissolved in corn oil by daily intra-gastric administration for the experimental period of 12 weeks. The SHAM, OVX and ALN control groups were given the same volume of corn oil without lycopene treatment. […] A 12-week randomized placebo-controlled study in order to examine the protective effects of lycopene supplementation on bone mass and fragility in OVX rats was concluded. Prior to surgery, body weight and bone mineral density (BMD) were obtained for all animals. Rats were randomized using a computer-generated randomization code into one of six groups: (1) sham-operated (SHAM; n=44); (2) ovariectomized control (OVX; n=44); (3) OVX lycopene-supplemented (15 mg/kg body weight per day) (n=44); (4) OVX lycopene-supplemented (30 mg/kg body weight per day) (n=44); (5) OVX lycopene-supplemented (45 mg/kg body weight per day) (n=44) and (6) OVX alendronate-treated (ALN) [2.0 μg/kg body weight per day subcutaneously (sc)] (n=44). Alendronate is an anti-resorptive agent for the treatment of osteoporosis and was used as a positive therapy control. […] All OVX groups were pair-fed with the SHAM group throughout the study to avoid the possible effects of ovariectomy-induced over-consumption and subsequent excessive weight gain. Treatment started 1 week after the surgery: this period of rest allowed the rats to recover from the stress associated with the surgery. In addition, after surgery, rats were administered Diclofenac sodium injection (20 mg/Kg body weight) to reduce the pain associated with the surgery. Rats were weighed and examined daily. Blood and urine samples were collected at baseline, during, and at the end of treatment for measurement of various BTMs and other analytes. In vivo dual energy x-ray absorptiometry (DXA) measurements were made for the bone mineral content (BMC) and BMD of the whole body, lumbar spine (L1-L4), and the right humerus, together with body composition at 12 weeks of treatment. One day following the post-test DXA assessments (at 12 weeks, 16 rats in each group), animals were euthanized by decapitation and right and left femurs were extracted for further biomechanical and histomorphometric analyses. Blood and urine samples were collected from all experimental groups to measure biochemical analytes and BTMs at baseline and 4, 8, and 12 weeks of treatment. Peripheral Quantitative CT (pQCT) scans were made of the proximal tibia metaphysis and the diaphysis. In vivo micro-computed tomographic (μCT) scans of the proximal tibia were obtained during the treatment period to monitor changes in bone mass and microarchitecture. […]

[3] = system: ovariectomized (OVX) rats; experiment: OVX rat study: in vivo pQCT densitometry of tibia metaphysis; set-up: species or system Wistar rats; conditions: 12 weeks, versus OVX control, P<0.001
Protocol: A total of 264 Wistar female rats, ˜6 months old, were supplied by the Animal House at King Fahd Medical Research Center (KFMRC), KAU. Rats were housed in individual cages and maintained at 22° C. with a 12-h light/dark cycle. During the study period, rats were given standard rodent chow diet ad libitum (commercial rat cubes containing approximately 18% protein, 3% fat, 77% carbohydrate, and 2% of an inorganic-salt mixture with a vitamin supplement by weight, supplied by Grain Silos and Flour Mills Organization, Jeddah, Saudi Arabia) and water until the onset of intervention. Prior to surgery, rats were anesthetized with ketamine [(10% ketamine hydrochloride (80 mg/kg body weight), Cayman Chemical, Michigan, USA] and xylazine [(2% xylazine hydrochloride, 10 mg/kg body weight), Sigma-Aldrich Co., St. Louis, USA]. A single longitudinal skin incision was made on the dorsal midline at the level of the kidneys and both ovaries were ligated and removed to produce an ovariectomy in all OVX group animals. A SHAM-operated group, acting as a negative control for the effect of ovariectomy on bone parameters, underwent bilateral laparotomy, during which the ovaries were exposed but remained intact. […] Peripheral Quantitative CT (pQCT) scans were made of the proximal tibia metaphysis and the diaphysis. […]

[4] = lycopene 15-45 mg/kg/day, 12 weeks, range over doses

SMILES: CC(C)=CCC/C(C)=C/C=C/C(C)=C/C=C/C(C)=C/C=C/C=C(C)/C=C/C=C(C)/C=C/C=C(\C)CCC=C(C)C [lycopene]
- Liver lycopene levels versus 15 mg/kg per day group ([1]; 30 and 45 mg/kg body weight per day groups): significantly higher
- concentration at 12 weeks ([1]; female, Wistar, rat, serum, 45 mg/kg/day, OVX rats, at 12 weeks, 45 mg/kg body weight per day oral, read-out: Serum lycopene levels): 71.5 ± 4.65 nM
- lycopene in serum and livers ([1]; rats treated with lycopene, dose-dependent fashion): detected
- osteoclast surface (Oc.S/BS) and osteoclast number (N.Oc/BS) ([2]; OVX rats, lycopene, P<0.001): significant decreases
- bone formation parameters (Ob.S/BS, MS/BS, BFR/BS, BFR/BV) ([2]; OVX rats, lycopene, tibial metaphysis): prevented OVX-induced increases
- increase in BV/TV, tibial metaphysis (histomorphometry), compared with OVX control [2, 4]: 27.1-92.2%
- increase in Tb.N, tibial metaphysis (histomorphometry), compared with OVX control [2, 4]: 9.2-72.9%
- OVX-related increases in endocortical bone turnover formation (Ec.L.Pm/Ec.Pm, Ec MAR, Ec.BFR/BS) ([2]; lycopene greater than 15 mg/kg body weight per day, tibial diaphysis): completely prevented
- bone dynamics on the periosteal surface ([2]; lycopene, except at 45 mg/kg body weight per day): positively affected
- OVX-induced bone loss (total and trabecular BMD, proximal tibia, pQCT) [3]: significantly prevented
